According to ChEMBL document CHEMBL6127052, “Discovery of membrane-targeting amphiphilic honokiol derivatives containing an oxazolethione moiety to combat methicillin-resistant Staphylococcus aureus (MRSA) infections” (Eur J Med Chem, 2024):

Experiments:
[1] = tested on: Staphylococcus aureus; experiment: Antibacterial activity against methicillin-resistant Staphylococcus aureus clinical isolate M12 by CLSI based micro-broth dilution method; type: functional
[2] = tested on: Staphylococcus aureus; experiment: Antibacterial activity against methicillin-resistant Staphylococcus aureus clinical isolate M23 by CLSI based micro-broth dilution method; type: functional
[3] = tested on: Staphylococcus aureus; experiment: Antibacterial activity against methicillin-resistant Staphylococcus aureus clinical isolate M22 by CLSI based micro-broth dilution method; type: functional
[4] = tested on: Staphylococcus aureus; experiment: Antibacterial activity against methicillin-resistant Staphylococcus aureus clinical isolate M13 by CLSI based micro-broth dilution method; type: functional
[5] = tested on: Escherichia coli; experiment: Antibacterial activity against Escherichia coli ATCC 25922 by CLSI based micro-broth dilution method; type: functional
[6] = Hemolytic activity in sheep erythrocytes incubated for 1 hr by absorbance based assay; type: toxicity, cell-based, Ovis aries, Erythrocyte
[7] = Selectivity index, ratio of HC50 for hemolytic activity in sheep erythrocytes to MIC for antibacterial activity against Staphylococcus aureus ATCC 29213; type: toxicity, cell-based, RBC
[8] = tested on: Staphylococcus aureus; experiment: Antibacterial activity against methicillin-resistant Staphylococcus aureus clinical isolate M11 by CLSI based micro-broth dilution method; type: functional
[9] = tested on: Staphylococcus aureus; experiment: Antibacterial activity against methicillin-resistant Staphylococcus aureus clinical isolate M17 by CLSI based micro-broth dilution method; type: functional
[10] = tested on: Staphylococcus aureus; experiment: Antibacterial activity against methicillin-resistant Staphylococcus aureus clinical isolate M20 by CLSI based micro-broth dilution method; type: functional
[11] = tested on: Staphylococcus aureus; experiment: Antibacterial activity against Staphylococcus aureus ATCC 29213 by CLSI based micro-broth dilution method; type: functional
[12] = tested on: Staphylococcus aureus; experiment: Antibacterial activity against methicillin-resistant Staphylococcus aureus clinical isolate M21 by CLSI based micro-broth dilution method; type: functional
[13] = tested on: Staphylococcus aureus; experiment: Antibacterial activity against methicillin-resistant Staphylococcus aureus clinical isolate M16 by CLSI based micro-broth dilution method; type: functional
[14] = tested on: Staphylococcus aureus; experiment: Antibacterial activity against methicillin-resistant Staphylococcus aureus clinical isolate M14 by CLSI based micro-broth dilution method; type: functional
[15] = tested on: Staphylococcus aureus; experiment: Antibacterial activity against methicillin-resistant Staphylococcus aureus N315 by CLSI based micro-broth dilution method; type: functional

C=CCc1cc(-c2ccc(OCCC[N+](C)(C)CC(=O)NCCCC)c(CC=C)c2)c2oc(=S)n(Cc3cc(Br)cc(Br)c3)c2c1.[Br-]
MIC [1]: 64 µg/mL | MIC [2]: 64 µg/mL | MIC [3]: 64 µg/mL | MIC [4]: 128 µg/mL | MIC [5]: > 128 µg/mL | HC50 at 1 h [6]: > 160 µg/mL | selectivity ratio [7]: 1.3 | MIC [8]: 32 µg/mL | MIC [9]: 64 µg/mL | MIC [10]: 32 µg/mL | MIC [11]: > 128 µg/mL | MIC [12]: 32 µg/mL | MIC [13]: 64 µg/mL | MIC [14]: 128 µg/mL | MIC [15]: 64 µg/mL

C=CCc1cc(-c2ccc(OCCC[N+](C)(C)CC(=O)NCCCC)c(CC=C)c2)c2oc(=S)n(Cc3c(Cl)cccc3Cl)c2c1.[Br-]
MIC [1]: 4 µg/mL | MIC [2]: 8 µg/mL | MIC [3]: 32 µg/mL | MIC [4]: 16 µg/mL | MIC [5]: > 128 µg/mL | HC50 at 1 h [6]: 400 µg/mL | selectivity ratio [7]: 25 | MIC [8]: 8 µg/mL | MIC [9]: 16 µg/mL | MIC [10]: 8 µg/mL | MIC [11]: 16 µg/mL | MIC [12]: 8 µg/mL | MIC [13]: 8 µg/mL | MIC [14]: 16 µg/mL | MIC [15]: 32 µg/mL

C=CCc1cc(-c2ccc(OCCC[N+](C)(C)CC(=O)NCCCC)c(CC=C)c2)c2oc(=S)n(Cc3ccc(Cl)c(Cl)c3)c2c1.[Br-]
MIC [1]: 32 µg/mL | MIC [2]: 32 µg/mL | MIC [3]: 64 µg/mL | MIC [4]: 64 µg/mL | MIC [5]: > 128 µg/mL | HC50 at 1 h [6]: > 160 µg/mL | selectivity ratio [7]: > 2.5 | MIC [8]: 32 µg/mL | MIC [9]: 128 µg/mL | MIC [10]: 32 µg/mL | MIC [11]: 64 µg/mL | MIC [12]: 16 µg/mL | MIC [13]: 32 µg/mL | MIC [14]: 32 µg/mL | MIC [15]: 32 µg/mL

C=CCc1cc(-c2ccc(OCCC[N+](C)(C)CC(=O)NCCCC)c(CC=C)c2)c2oc(=S)n(Cc3ccc(Cl)cc3)c2c1.[Br-]
MIC [1]: 4 µg/mL | MIC [2]: 16 µg/mL | MIC [3]: 8 µg/mL | MIC [4]: 8 µg/mL | MIC [5]: > 128 µg/mL | HC50 at 1 h [6]: 519 µg/mL | selectivity ratio [7]: 32.5 | MIC [8]: 4 µg/mL | MIC [9]: 8 µg/mL | MIC [10]: 4 µg/mL | MIC [11]: 16 µg/mL | MIC [12]: 4 µg/mL | MIC [13]: 8 µg/mL | MIC [14]: 16 µg/mL | MIC [15]: 32 µg/mL
